Key:
Experiment in all cases: Test C pre/postemergence
Type in all cases: in vivo
Details in all cases: Preemergence
[1] = test system: woolly cupgrass (Eriochloa villosa)
Procedure, shortened: (§1)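 Seeds sown and sprayed preemergence with test compound in non-phytotoxic solvent containing surfactant; postemergence sprays, same formulation, went onto plants 2 to 18 cm tall (1- to 4-leaf stage). Plants held in greenhouse 12 to 14 days, then visually rated against untreated controls on a 0–100 scale (0 no effect, 100 complete control).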

[2] = test system: bermudagrass (Cynodon dactylon)
Procedure, shortened: as §1

kochia (Kochia scoparia) = test system: kochia (Kochia scoparia)
Procedure, shortened: as §1

[3] = test system: common (oilseed) sunflower (Helianthus annuus)
Procedure, shortened: as §1

[4] = test system: morningglory (Ipomoea coccinea)
Procedure, shortened: as §1

[5] = test system: Surinam grass (Brachiaria decumbens)
Procedure, shortened: as §1

[6] = test system: eastern black nightshade (Solanum ptycanthum)
Procedure, shortened: as §1

[7] = test system: cocklebur (Xanthium strumarium)
Procedure, shortened: as §1

[8] = test system: pigweed (Amaranthus retroflexus)
Procedure, shortened: as §1

corn (Zea mays) = test system: corn (Zea mays)
Procedure, shortened: as §1

[9] = test system: common ragweed (Ambrosia elatior)
Procedure, shortened: as §1

[10] = test system: johnsongrass (Sorghum halepense)
Procedure, shortened: as §1

[11] = 31 g ai/ha, scale 0 to 100, 0 no effect, 100 complete control
[12] = 62 g ai/ha, scale 0 to 100, 0 no effect, 100 complete control

COC(=O)Cc1nc(C2CC2)nc(N)c1Br [Compound 13]
Plant response rating, Cupgrass, Woolly [1, 11]: 0 | Plant response rating, Cupgrass, Woolly [1, 12]: 0 | Plant response rating, Cupgrass, Woolly ([1]; 125 g ai/ha, scale 0 to 100): 0 | Plant response rating, Cupgrass, Woolly ([1]; 250 g ai/ha, scale 0 to 100): 0 | Plant response rating, Bermudagrass [2, 11]: 0 | Plant response rating, Bermudagrass [2, 12]: 0 | Plant response rating, Bermudagrass ([2]; 125 g ai/ha, scale 0 to 100): 0 | Plant response rating, Bermudagrass ([2]; 250 g ai/ha, scale 0 to 100): 0 | Plant response rating, Kochia (kochia (Kochia scoparia); [11]): 45 | Plant response rating, Kochia (kochia (Kochia scoparia); [12]): 60 | Plant response rating, Kochia (kochia (Kochia scoparia); 125 g ai/ha, scale 0 to 100): 80 | Plant response rating, Kochia (kochia (Kochia scoparia); 250 g ai/ha, scale 0 to 100): 85 | Plant response rating, Sunflower [3, 11]: 5 | Plant response rating, Sunflower [3, 12]: 50 | Plant response rating, Sunflower ([3]; 125 g ai/ha, scale 0 to 100): 60 | Plant response rating, Sunflower ([3]; 250 g ai/ha, scale 0 to 100): 90 | Plant response rating, Morningglory [4, 11]: 60 | Plant response rating, Morningglory [4, 12]: 65 | Plant response rating, Morningglory ([4]; 125 g ai/ha, scale 0 to 100): 85 | Plant response rating, Morningglory ([4]; 250 g ai/ha, scale 0 to 100): 90 | Plant response rating, Surinam Grass [5, 11]: 0 | Plant response rating, Surinam Grass [5, 12]: 0 | Plant response rating, Surinam Grass ([5]; 125 g ai/ha, scale 0 to 100): 0 | Plant response rating, Surinam Grass ([5]; 250 g ai/ha, scale 0 to 100): 10 | Plant response rating, Nightshade [6, 11]: 0 | Plant response rating, Nightshade [6, 12]: 0 | Plant response rating, Nightshade ([6]; 125 g ai/ha, scale 0 to 100): 90 | Plant response rating, Nightshade ([6]; 250 g ai/ha, scale 0 to 100): 90 | Plant response rating, Cocklebur [7, 11]: 40 | Plant response rating, Cocklebur [7, 12]: 60 | Plant response rating, Cocklebur ([7]; 125 g ai/ha, scale 0 to 100): 90 | Plant response rating, Cocklebur ([7]; 250 g ai/ha, scale 0 to 100): 95 | Plant response rating, Pigweed [8, 11]: 50 | Plant response rating, Pigweed [8, 12]: 60 | Plant response rating, Pigweed ([8]; 125 g ai/ha, scale 0 to 100): 85 | Plant response rating, Pigweed ([8]; 250 g ai/ha, scale 0 to 100): 90 | Plant response rating, Corn (corn (Zea mays); [11]): 0 | Plant response rating, Corn (corn (Zea mays); [12]): 5 | Plant response rating, Corn (corn (Zea mays); 125 g ai/ha, scale 0 to 100): 10 | Plant response rating, Corn (corn (Zea mays); 250 g ai/ha, scale 0 to 100): 30 | Plant response rating, Ragweed [9, 11]: 45 | Plant response rating, Ragweed [9, 12]: 60 | Plant response rating, Ragweed ([9]; 125 g ai/ha, scale 0 to 100): 70 | Plant response rating, Ragweed ([9]; 250 g ai/ha, scale 0 to 100): 85 | Plant response rating, Johnsongrass [10, 11]: 0 | Plant response rating, Johnsongrass [10, 12]: 0 | Plant response rating, Johnsongrass ([10]; 125 g ai/ha, scale 0 to 100): 5 | Plant response rating, Johnsongrass ([10]; 250 g ai/ha, scale 0 to 100): 45

Reference: patent publication US8802597B2, “Herbicidal pyrimidines” (E I du Pont de Nemours and Company, priority 2003, dated 2014)
